# Measured values reported in US9302999B2, “Substituted triazoles as herbicides” (E. I. DU PONT DE NEMOURS AND COMPANY, priority 2012, dated 2016).
# Columns and labels:
# Format in all cases: in vivo
# [1] = system: nightshade (eastern black nightshade, Solanum ptycanthum); test: Test C pre-/postemergence: nightshade; conditions: Preemergence
# Description: (§1) Seeds of plant species selected from blackgrass (Alopecurus myosuroides), bromegrass, downy (downy bromegrass, Bromus tectorum), foxtail, green (green foxtail, Setaria viridis), ryegrass, Italian (Italian ryegrass, Lolium multiflorum), winter wheat (Triticum aestivum), wild oat (Avena fatua), galium (catchweed bedstraw, Galium aparine), bermudagrass (Cynodon dactylon), surinam grass (Brachiaria decumbens), cocklebur (common cocklebur, Xanthium strumarium), corn (Zea mays), large crabgrass (Digitaria sanguinalis), woolly cupgrass (Eriochloa villosa), foxtail, giant (giant foxtail, Setaria faberii), goosegrass (Eleusine indica), johnsongrass (Sorghum halepense), kochia (Kochia scoparia), lambsquarters (Chenopodium album), morningglory (Ipomoea coccinea), nightshade (eastern black nightshade, Solanum ptycanthum), nutsedge, yellow (yellow nutsedge, Cyperus esculentus), pigweed (Amaranthus retroflexus), ragweed (common ragweed, Ambrosia elation), soybean (Glycine max), common (oilseed) sunflower (Helianthus annuus), Russian thistle (Salsola kali) and velvetleaf (Abutilon theophrasti) were planted into a blend of loam soil and sand and treated preemergence with test chemicals formulated in a non-phytotoxic solvent mixture which included a surfactant.
# (§2) At the same time, plants selected from these crop and weed species and also barley (winter barley, Hordeum vulgare), canarygrass (Phalaris minor), chickweed (common chickweed, Stellaria media) windgrass (Apera spica-venti) and deadnettle (henbit deadnettle, Lamium amplexicaule) were planted in pots containing Redi-Earth® planting medium (Scotts Company, 14111 Scottslawn Road, Marysville, Ohio 43041) comprising spaghnum peat moss, vermiculite, wetting agent and starter nutrients and treated with postemergence applications of test chemicals formulated in the same manner. Plants ranged in height from 2 to 18 cm (1- to 4-leaf stage) for postemergence treatments.
# (§3) Treated plants and controls were maintained in a greenhouse for 13 to 15 days, after which time all species were compared to controls and visually evaluated. Plant response ratings, summarized in Table C, are based on a scale of 0 to 100 where 0 is no effect and 100 is complete control. A dash (-) response means no test result.
# [2] = system: cocklebur (common cocklebur, Xanthium strumarium); test: Test C pre-/postemergence: cocklebur
# Description: as §1, §2, §3
# [3] = system: deadnettle (henbit deadnettle, Lamium amplexicaule); test: Test C postemergence: deadnettle
# Description: as §2, §3
# [4] = system: surinam grass (Brachiaria decumbens); test: Test C pre-/postemergence: surinam grass
# Description: as §1, §2, §3
# [5] = system: windgrass (Apera spica-venti); test: Test C postemergence: windgrass
# Procedure, shortened: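 Pot-grown plants in peat/vermiculite medium sprayed postemergence at 2–18 cm height (1- to 4-leaf stage). Kept in greenhouse 13 to 15 days, then visually rated against untreated controls on a 0–100 scale (0 = no effect, 100 = complete control).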
# [6] = system: goosegrass (Eleusine indica); test: Test C pre-/postemergence: goosegrass
# Procedure, shortened: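 Preemergence on seeds in loam/sand, postemergence on 2–18 cm (1–4-leaf) plants in peat-based medium; compounds in non-phytotoxic solvent with surfactant. After 13–15 days in greenhouse, visual rating versus controls, 0 (no effect) to 100 (complete control).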
# [7] = system: common (oilseed) sunflower (Helianthus annuus); test: Test C pre-/postemergence: sunflower; conditions: Preemergence
# Description: as §1, §2, §3
# [8] = system: foxtail, green (green foxtail, Setaria viridis); test: Test C pre-/postemergence: foxtail, green
# Description: as §1, §2, §3
# [9] = system: canarygrass (Phalaris minor); test: Test C postemergence: canarygrass
# Description: as §2, §3
# [10] = system: barley (winter barley, Hordeum vulgare); test: Test C postemergence: barley
# Description: as §2, §3
# [11] = system: bermudagrass (Cynodon dactylon); test: Test C pre-/postemergence: bermudagrass
# Description: as §1, §2, §3
# [12] = 16 g ai/ha, scale 0 (no effect) to 100 (complete control)
# [13] = 31 g ai/ha, scale of 0 to 100, 0 is no effect, 100 is complete control
# [14] = 62 g ai/ha, scale of 0 to 100, 0 is no effect, 100 is complete control
# [15] = 125 g ai/ha, scale 0 to 100, 0 no effect, 100 complete control
# [16] = Postemergence, 31 g ai/ha, scale 0 to 100 (0 no effect, 100 complete control)
# [17] = Postemergence, 62 g ai/ha, scale 0 to 100 (0 no effect, 100 complete control)
# [18] = Postemergence, 125 g ai/ha, scale 0 to 100, 0 no effect, 100 complete control
# [19] = Preemergence, 16 g ai/ha, scale 0 (no effect) to 100 (complete control)
# [20] = Preemergence, 31 g ai/ha, scale of 0 to 100, 0 is no effect, 100 is complete control
# [21] = Preemergence, 125 g ai/ha, scale 0 to 100, 0 no effect, 100 complete control
# [22] = 16 g ai/ha, scale 0 to 100, 0 no effect, 100 complete control
# [23] = 31 g ai/ha, scale 0 to 100 (0 no effect, 100 complete control)
# [24] = 62 g ai/ha, scale 0 to 100 (0 no effect, 100 complete control)
# [25] = Postemergence, 16 g ai/ha, scale 0 to 100, 0 no effect, 100 complete control
# [26] = Preemergence, 62 g ai/ha, scale of 0 to 100, 0 is no effect, 100 is complete control
# [27] = Preemergence, 62 g ai/ha, scale 0 to 100, 0 no effect, 100 complete control
# [28] = 250 g ai/ha, scale 0 to 100, 0 no effect, 100 complete control
# [29] = Postemergence, 250 g ai/ha, scale 0 to 100
# [30] = Preemergence, 250 g ai/ha, scale 0 to 100, 0 no effect, 100 complete control
smiles,measurement,setting,value
"COc1nn(-c2ccc(C(F)(F)F)cc2)nc1Cc1ccnc(C(F)(F)F)c1 [Compound 15, 4-[[5-methoxy-2-[4-(trifluoromethyl)phenyl]-2H-1,2,3-triazol-4-yl]methyl]-2-(trifluoromethyl)pyridine]","Plant response rating, Nightshade",[1]; [12],10
same,"Plant response rating, Nightshade",[1]; [13],25
same,"Plant response rating, Nightshade",[1]; [14],85
same,"Plant response rating, Nightshade",[1]; [15],90
same,"Plant response rating, Cocklebur",[2]; [16],5
same,"Plant response rating, Cocklebur",[2]; [17],60
same,"Plant response rating, Cocklebur",[2]; [18],75
same,"Plant response rating, Cocklebur",[2]; [19],0
same,"Plant response rating, Cocklebur",[2]; [20],0
same,"Plant response rating, Cocklebur",[2]; [21],65
same,"Plant response rating, Deadnettle",[3]; [22],90
same,"Plant response rating, Deadnettle",[3]; [23],100
same,"Plant response rating, Deadnettle",[3]; [24],100
same,"Plant response rating, Deadnettle",[3]; [15],100
same,"Plant response rating, Surinam Grass",[4]; [25],5
same,"Plant response rating, Surinam Grass",[4]; [16],10
same,"Plant response rating, Surinam Grass",[4]; [17],15
same,"Plant response rating, Surinam Grass",[4]; [18],50
same,"Plant response rating, Surinam Grass",[4]; [19],10
same,"Plant response rating, Surinam Grass",[4]; [20],40
same,"Plant response rating, Surinam Grass",[4]; [26],55
same,"Plant response rating, Surinam Grass",[4]; [21],90
same,"Plant response rating, Windgrass",[5]; [22],20
same,"Plant response rating, Windgrass",[5]; [23],20
same,"Plant response rating, Windgrass",[5]; [24],85
same,"Plant response rating, Windgrass",[5]; [15],90
same,"Plant response rating, Goosegrass",[6]; [25],5
same,"Plant response rating, Goosegrass",[6]; [16],25
same,"Plant response rating, Goosegrass",[6]; [17],40
same,"Plant response rating, Goosegrass",[6]; [18],65
same,"Plant response rating, Goosegrass",[6]; [19],100
same,"Plant response rating, Goosegrass",[6]; [20],100
same,"Plant response rating, Goosegrass",[6]; [26],100
same,"Plant response rating, Goosegrass",[6]; [21],100
same,"Plant response rating, Sunflower",[7]; [12],0
same,"Plant response rating, Sunflower",[7]; [13],0
same,"Plant response rating, Sunflower",[7]; [14],0
same,"Plant response rating, Sunflower",[7]; [15],25
same,"Plant response rating, Foxtail, Green",[8]; [25],30
same,"Plant response rating, Foxtail, Green",[8]; [16],40
same,"Plant response rating, Foxtail, Green",[8]; [17],85
same,"Plant response rating, Foxtail, Green",[8]; [18],85
same,"Plant response rating, Foxtail, Green",[8]; [19],95
same,"Plant response rating, Foxtail, Green",[8]; [20],95
same,"Plant response rating, Foxtail, Green",[8]; [26],100
same,"Plant response rating, Foxtail, Green",[8]; [21],100
same,"Plant response rating, Canarygrass",[9]; [22],35
same,"Plant response rating, Canarygrass",[9]; [23],60
same,"Plant response rating, Canarygrass",[9]; [24],85
same,"Plant response rating, Canarygrass",[9]; [15],85
same,"Plant response rating, Barley",[10]; [22],30
same,"Plant response rating, Barley",[10]; [23],35
same,"Plant response rating, Barley",[10]; [24],35
same,"Plant response rating, Barley",[10]; [15],50
same,"Plant response rating, Bermudagrass",[11]; [25],5
same,"Plant response rating, Bermudagrass",[11]; [16],5
same,"Plant response rating, Bermudagrass",[11]; [17],15
same,"Plant response rating, Bermudagrass",[11]; [18],35
same,"Plant response rating, Bermudagrass",[11]; [19],100
same,"Plant response rating, Bermudagrass",[11]; [20],100
same,"Plant response rating, Bermudagrass",[11]; [27],100
same,"Plant response rating, Bermudagrass",[11]; [21],100
Cc1nn(-c2ccc(C(F)(F)F)cn2)nc1Oc1ccnc(C(F)(F)F)c1 [Compound 23],"Plant response rating, Nightshade",[1]; [13],50
same,"Plant response rating, Nightshade",[1]; [14],90
same,"Plant response rating, Nightshade",[1]; [15],95
same,"Plant response rating, Nightshade",[1]; [28],98
same,"Plant response rating, Cocklebur",[2]; [16],25
same,"Plant response rating, Cocklebur",[2]; [17],25
same,"Plant response rating, Cocklebur",[2]; [18],40
same,"Plant response rating, Cocklebur",[2]; [29],50
same,"Plant response rating, Cocklebur",[2]; [20],0
same,"Plant response rating, Cocklebur",[2]; [27],0
same,"Plant response rating, Cocklebur",[2]; [21],5
same,"Plant response rating, Cocklebur",[2]; [30],5
same,"Plant response rating, Deadnettle",[3]; [23],80
same,"Plant response rating, Deadnettle",[3]; [24],80
same,"Plant response rating, Deadnettle",[3]; [15],85
same,"Plant response rating, Deadnettle","[3]; 250 g ai/ha, scale 0 to 100",98
same,"Plant response rating, Surinam Grass",[4]; [16],5
same,"Plant response rating, Surinam Grass",[4]; [17],10
same,"Plant response rating, Surinam Grass",[4]; [18],10
same,"Plant response rating, Surinam Grass",[4]; [29],15
same,"Plant response rating, Surinam Grass",[4]; [20],15
same,"Plant response rating, Surinam Grass",[4]; [26],60
same,"Plant response rating, Surinam Grass",[4]; [21],100
same,"Plant response rating, Surinam Grass",[4]; [30],100
same,"Plant response rating, Windgrass",[5]; [23],10
same,"Plant response rating, Windgrass",[5]; [24],15
same,"Plant response rating, Windgrass",[5]; [15],15
same,"Plant response rating, Windgrass","[5]; 250 g ai/ha, scale 0 to 100",15
same,"Plant response rating, Goosegrass",[6]; [16],10
same,"Plant response rating, Goosegrass",[6]; [17],10
same,"Plant response rating, Goosegrass",[6]; [18],15
same,"Plant response rating, Goosegrass",[6]; [29],30
same,"Plant response rating, Goosegrass",[6]; [20],95
same,"Plant response rating, Goosegrass",[6]; [26],100
same,"Plant response rating, Goosegrass",[6]; [21],100
same,"Plant response rating, Goosegrass",[6]; [30],100
same,"Plant response rating, Sunflower",[7]; [13],0
same,"Plant response rating, Sunflower",[7]; [14],0
same,"Plant response rating, Sunflower",[7]; [15],0
same,"Plant response rating, Sunflower",[7]; [28],0
same,"Plant response rating, Foxtail, Green",[8]; [17],30
same,"Plant response rating, Foxtail, Green",[8]; [18],45
same,"Plant response rating, Foxtail, Green",[8]; [29],50
same,"Plant response rating, Foxtail, Green",[8]; [20],100
same,"Plant response rating, Foxtail, Green",[8]; [26],100
same,"Plant response rating, Foxtail, Green",[8]; [21],100
same,"Plant response rating, Foxtail, Green",[8]; [30],100
same,"Plant response rating, Canarygrass",[9]; [23],5
same,"Plant response rating, Canarygrass",[9]; [24],10
same,"Plant response rating, Canarygrass",[9]; [15],15
same,"Plant response rating, Canarygrass","[9]; 250 g ai/ha, scale 0 to 100",15
same,"Plant response rating, Barley",[10]; [23],5
same,"Plant response rating, Barley",[10]; [24],15
same,"Plant response rating, Barley",[10]; [15],20
same,"Plant response rating, Barley","[10]; 250 g ai/ha, scale 0 to 100",30
same,"Plant response rating, Bermudagrass",[11]; [16],5
same,"Plant response rating, Bermudagrass",[11]; [17],10
same,"Plant response rating, Bermudagrass",[11]; [18],15
same,"Plant response rating, Bermudagrass",[11]; [29],30
same,"Plant response rating, Bermudagrass",[11]; [20],100
same,"Plant response rating, Bermudagrass",[11]; [27],100
same,"Plant response rating, Bermudagrass",[11]; [21],100
same,"Plant response rating, Bermudagrass",[11]; [30],100
